Measured values taken from PubChem BioAssay (NCI).
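Briefly, cells in 96-well plates were exposed to five compound concentrations for 48 h, and endpoints were estimated by linear interpolation. TGI: concentration producing complete growth inhibition.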

Experiments:
Test in all cases: NCI tumour cell line growth inhibition, 48 h
PC-3 prostate = system: PC-3 prostate
MDA-MB-231 breast = system: MDA-MB-231 breast
A549 NSCLC = system: A549 NSCLC
TK-10 renal = system: TK-10 renal
LOX IMVI melanoma = system: LOX IMVI melanoma
NCI-H23 lung = system: NCI-H23 lung
U251 CNS = system: U251 CNS
OVCAR-3 ovarian = system: OVCAR-3 ovarian
CAKI-1 renal = system: CAKI-1 renal
SF-295 CNS = system: SF-295 CNS
NCI/ADR-RES ovarian = system: NCI/ADR-RES ovarian
KM12 colon = system: KM12 colon
HCC-2998 colon = system: HCC-2998 colon
SN12C renal = system: SN12C renal
UACC-62 melanoma = system: UACC-62 melanoma
OVCAR-4 ovarian = system: OVCAR-4 ovarian
SNB-19 CNS = system: SNB-19 CNS
SK-MEL-28 melanoma = system: SK-MEL-28 melanoma
HL-60(TB) leukemia = system: HL-60(TB) leukemia
NCI-H226 lung = system: NCI-H226 lung
OVCAR-8 ovarian = system: OVCAR-8 ovarian
MDA-MB-435 = system: MDA-MB-435
SK-OV-3 ovarian = system: SK-OV-3 ovarian
HT29 colon = system: HT29 colon
NCI-H522 lung = system: NCI-H522 lung
COLO 205 colon = system: COLO 205 colon
HOP-62 NSCLC = system: HOP-62 NSCLC
K-562 leukemia = system: K-562 leukemia
EKVX NSCLC = system: EKVX NSCLC
HOP-92 NSCLC = system: HOP-92 NSCLC
A498 renal = system: A498 renal
IGROV1 ovarian = system: IGROV1 ovarian
ACHN renal = system: ACHN renal
UO-31 renal = system: UO-31 renal
HCT-116 colon = system: HCT-116 colon
SW-620 colon = system: SW-620 colon
MDA-N = system: MDA-N
SK-MEL-5 melanoma = system: SK-MEL-5 melanoma
M14 melanoma = system: M14 melanoma
MCF7 breast = system: MCF7 breast
HS 578T breast = system: HS 578T breast
HCT-15 colon = system: HCT-15 colon
MALME-3M melanoma = system: MALME-3M melanoma
T-47D breast = system: T-47D breast
DU-145 prostate = system: DU-145 prostate
UACC-257 melanoma = system: UACC-257 melanoma
RXF 393 renal = system: RXF 393 renal
SK-MEL-2 melanoma = system: SK-MEL-2 melanoma
CCRF-CEM leukemia = system: CCRF-CEM leukemia
RPMI-8226 leukemia = system: RPMI-8226 leukemia
SF-268 CNS = system: SF-268 CNS
SF-539 CNS = system: SF-539 CNS
OVCAR-5 ovarian = system: OVCAR-5 ovarian
NCI-H460 lung = system: NCI-H460 lung
786-0 renal = system: 786-0 renal
MOLT-4 leukemia = system: MOLT-4 leukemia
SR leukemia = system: SR leukemia
BT-549 breast = system: BT-549 breast

SMILES: COc1ccc(C2OC(c3ccncc3)=NN2C)cc1OC (centres undefined)
- TGI (PC-3 prostate): > 100 µM
- TGI (MDA-MB-231 breast): > 100 µM
- TGI (A549 NSCLC): > 100 µM
- TGI (TK-10 renal): > 100 µM
- TGI (LOX IMVI melanoma): > 100 µM
- TGI (NCI-H23 lung): > 100 µM
- TGI (U251 CNS): > 100 µM
- TGI (OVCAR-3 ovarian): > 100 µM
- TGI (CAKI-1 renal): > 100 µM
- TGI (SF-295 CNS): > 100 µM
- TGI (NCI/ADR-RES ovarian): > 100 µM
- TGI (KM12 colon): > 100 µM
- TGI (HCC-2998 colon): > 100 µM
- TGI (SN12C renal): > 100 µM
- TGI (UACC-62 melanoma): > 100 µM
- TGI (OVCAR-4 ovarian): > 100 µM
- TGI (SNB-19 CNS): > 100 µM
- TGI (SK-MEL-28 melanoma): > 100 µM
- TGI (HL-60(TB) leukemia): > 100 µM
- TGI (NCI-H226 lung): > 100 µM
- TGI (OVCAR-8 ovarian): > 100 µM
- TGI (MDA-MB-435): > 100 µM
- TGI (SK-OV-3 ovarian): > 100 µM
- TGI (HT29 colon): > 100 µM
- TGI (NCI-H522 lung): > 100 µM
- TGI (COLO 205 colon): > 100 µM
- TGI (HOP-62 NSCLC): > 100 µM
- TGI (K-562 leukemia): > 100 µM
- TGI (EKVX NSCLC): > 100 µM
- TGI (HOP-92 NSCLC): > 100 µM
- TGI (A498 renal): 98.4 µM
- TGI (IGROV1 ovarian): > 100 µM
- TGI (ACHN renal): > 100 µM
- TGI (UO-31 renal): > 100 µM
- TGI (HCT-116 colon): > 100 µM
- TGI (SW-620 colon): > 100 µM
- TGI (MDA-N): > 100 µM
- TGI (SK-MEL-5 melanoma): > 100 µM
- TGI (M14 melanoma): > 100 µM
- TGI (MCF7 breast): > 100 µM
- TGI (HS 578T breast): > 100 µM
- TGI (HCT-15 colon): > 100 µM
- TGI (MALME-3M melanoma): > 100 µM
- TGI (T-47D breast): > 100 µM
- TGI (DU-145 prostate): > 100 µM
- TGI (UACC-257 melanoma): > 100 µM
- TGI (RXF 393 renal): > 100 µM
- TGI (SK-MEL-2 melanoma): > 100 µM
- TGI (CCRF-CEM leukemia): > 100 µM
- TGI (RPMI-8226 leukemia): > 100 µM
- TGI (SF-268 CNS): > 100 µM
- TGI (SF-539 CNS): > 100 µM
- TGI (OVCAR-5 ovarian): > 100 µM
- TGI (NCI-H460 lung): > 100 µM
- TGI (786-0 renal): > 100 µM
- TGI (MOLT-4 leukemia): > 100 µM

SMILES: CN1C2CCC1CC(C)(O)C2 (centres undefined)
- TGI (PC-3 prostate): > 100 µM
- TGI (MDA-MB-231 breast): > 100 µM
- TGI (TK-10 renal): > 100 µM
- TGI (LOX IMVI melanoma): > 100 µM
- TGI (NCI-H23 lung): > 100 µM
- TGI (U251 CNS): > 100 µM
- TGI (OVCAR-3 ovarian): > 100 µM
- TGI (SF-295 CNS): > 100 µM
- TGI (NCI/ADR-RES ovarian): > 100 µM
- TGI (KM12 colon): > 100 µM
- TGI (HCC-2998 colon): > 100 µM
- TGI (SN12C renal): > 100 µM
- TGI (SNB-19 CNS): > 100 µM
- TGI (SK-MEL-28 melanoma): > 100 µM
- TGI (HL-60(TB) leukemia): > 100 µM
- TGI (NCI-H226 lung): > 100 µM
- TGI (OVCAR-8 ovarian): > 100 µM
- TGI (MDA-MB-435): > 100 µM
- TGI (SR leukemia): > 100 µM
- TGI (HT29 colon): > 100 µM
- TGI (COLO 205 colon): > 100 µM
- TGI (BT-549 breast): > 100 µM
- TGI (HOP-62 NSCLC): > 100 µM
- TGI (K-562 leukemia): > 100 µM
- TGI (EKVX NSCLC): > 100 µM
- TGI (UO-31 renal): > 100 µM
- TGI (HCT-116 colon): > 100 µM
- TGI (SW-620 colon): > 100 µM
- TGI (MDA-N): > 100 µM
- TGI (M14 melanoma): > 100 µM
- TGI (MCF7 breast): > 100 µM
- TGI (HCT-15 colon): > 100 µM
- TGI (MALME-3M melanoma): > 100 µM
- TGI (T-47D breast): > 100 µM
- TGI (DU-145 prostate): > 100 µM
- TGI (UACC-257 melanoma): > 100 µM
- TGI (RXF 393 renal): > 100 µM
- TGI (SK-MEL-2 melanoma): > 100 µM
- TGI (CCRF-CEM leukemia): > 100 µM
- TGI (RPMI-8226 leukemia): > 100 µM
- TGI (SF-268 CNS): > 100 µM
- TGI (NCI-H460 lung): > 100 µM
- TGI (MOLT-4 leukemia): > 100 µM
